“And” between values parts separate entries of the source, which are not always exact repeats. Equal entries are not always repeated.
How the values were obtained:
[1] = Turbidimetry studies, cloud-point temperature (Tcp); type: physicochemical
Description: (§1) Solutions of 0.650 mL of ImAGhD2OH were prepared at 5 mM with 4 M KI. In the case of ImAGpD2OH, the solutions prepared were 5 mM with 2 M KI. By following this procedure the following ratio is recommended between ImAGhD2OH (or ImAGpD2OH) with KI salt: 0-10 mM of ImAGhD2OH (or ImAGpD2OH) with 2-4 M KI. To dissolve the solids it was prepared a 0.1 M sodium acetate buffer for pH values of 5, 5.1, 5.2, 5.3, 5.4, 5.5, 5.6, 5.7, 5.8, 5.9. For pH 6-7, PBS from Fisher Scientific was used. The samples were put in the refrigerator (−10° C.) overnight (˜12 h) for equilibration. This sample concentration was used for turbidity experiments, DSC, and DLS experiments. The concentrations of the resulting assemblies of SGQ and f-SHS were calculated in terms of the molecular weights of monomeric 8ArG derivative ImAGpD2OH or ImAGhD2OH.
This Tcp, which is measured by turbidimetry studies in UV-Vis, is the transition temperature to form the cluster of self-arranged supramolecular structures known as supramolecular hacky sacks (SHS). The turbidity measurements were performed at 650 nm using a Varian UV-visible spectrometer, Model Cary Bio-100. The heating rate was adjusted at 2.0° C./min using Cary temperature controller apparatus from Varian.

[2] = Isothermal turbidity, transition pH; type: physicochemical; conditions: for pKa: previously estimated, imidazole-containing ImAG
Description: as §1
Before the imidazole modification of ImAGpD2OH and ImAGhD2OH, chalcone imidazole standard derivative (E)-3-(1-methyl-1H-imidazol-2-yl)-1-phenylprop-2-en-1-one (ImAG std) was synthesized by the same aldol condensation method to obtain an estimation of the pKa by measuring the absorbance at different pHs in a Varian UV-visible spectrometer, Model Cary Bio-100 as shown in FIG. 14. For the transition pH measurement, Isothermal measurements at 26.0° C. were performed in a SPECTRAmax 340 microplate reader at 650 nm. In these experiments 100 μL of sample was added in each well in triplicate for pH: 5, 5.1, 5.2, 5.3, 5.4, 5.5, 5.6, 5.7, 5.8, 5.9, 6.0, 6.5, 7.0 and 7.5. After the microplate wells were filled, the microplate was placed in the refrigerator (−10° C.) for equilibration. Afterwards, an 85% weighted curve fit was performed to the obtained graph. According to the standard experiments performed, the pKa of ImAG std is between 5.5 and 6.
Aside from the effect of the pH on the precise assembly of the nanoglobular SGQs, we observed, at 26° C., a pH-responsive phase transition where, at pH 5 the system is in solution, but changing it to pH 7 results in the solution becoming cloudy.

[3] = Differential scanning calorimetry (DSC) of SGQ assemblies; type: physicochemical; conditions: for Tt: LCST transition
Description: The ΔGcal and ΔScal values shown in this table correspond to those calculated using the values of Tt, Tm, and ΔHcal from the instrument. All ΔG values were calculated at a temperature of 20° C.
Differential Scanning calorimetry (DSC) analyses were performed on a VP-DSC Micro-Calorimeter from MicroCal and Origin (v.7) was used for data processing. For the experiment, the buffer was first degasified and the experiment was carried out as a blank in both sample and reference cell. Then, the sample was degasified, and the blank buffer in the sample cell to be substituted with sample was removed. Afterwards, the experiment was performed with a temperature ramp of 0° C.-80° C. for 4 cycles.

[4] = test system: neuroblastoma (SH-SY5Y) cells; test: MTT viability assay; type: cell-based, human; conditions: 0.2 μM DOX
[5] = pKa estimation by UV-VIS absorbance at different pHs; type: physicochemical; conditions: UV absorbance at pH 5-7.5
Text: During the synthesis of derivatives ImAGhD2OH and ImAGpD2OH, an ImAG std (with a molecular structure as shown in FIG. 8) was constructed to obtain information of the pKa of the derivative by UV-VIS measurements. This allowed to study the effect of the functionality added in the 8ArG derivative. Derivative (E)-3-(1-methyl-1H-imidazol-2-yl)-1-phenylprop-2-en-1-one (ImAG std), with a chemical formula C13H12N2O, offers an alternative method to determine the pKa without having to perform the entire synthetic sequence for the corresponding compounds ImAGhD2OH and ImAGpD2OH. In the case of ImAG standard, the same procedure as above was followed, but the obtained solid was washed with ether and hexane. ImAG std was characterized as shown in FIG. 9 and FIG. 10 by using ^1H NMR and ^13C NMR, respectively. Yellow solid, mp (125.2-126.3) ° C. […]
Before the imidazole modification of ImAGpD2OH and ImAGhD2OH, chalcone imidazole standard derivative (E)-3-(1-methyl-1H-imidazol-2-yl)-1-phenylprop-2-en-1-one (ImAG std) was synthesized by the same aldol condensation method to obtain an estimation of the pKa by measuring the absorbance at different pHs in a Varian UV-visible spectrometer, Model Cary Bio-100 as shown in FIG. 14. For the transition pH measurement, Isothermal measurements at 26.0° C. were performed in a SPECTRAmax 340 microplate reader at 650 nm. […]

[6] = ImAGhD2OH, pH 5.0, calculated at 20° C.
[7] = ImAGhD2OH, pH 5.5, calculated at 20° C.
[8] = ImAGhD2OH, pH 6:0, calculated at 20° C.
[9] = ImAGhD2OH, pH 6.5, calculated at 20° C.
[10] = ImAGhD2OH, pH 7.0, calculated at 20° C.
[11] = ImAGpD2OH, pH 5.0, calculated at 20° C.
[12] = ImAGpD2OH, pH 7.0, calculated at 20° C.

Cn1ccnc1/C=C/C(=O)c1cccc(-c2nc3c(=O)[nH]c(N)nc3n2[C@H]2C[C@H](OC(=O)CCCCCn3cc(COC(=O)C(C)(CO)CO)nn3)[C@@H](COC(=O)CCCCCn3cc(COC(=O)C(C)(CO)CO)nn3)O2)c1 [ImAGhD2OH]
ΔTcp ([1]; between hSGQ and oSGQ): ≈ 25 °C
cloud-point temperature (Tcp) ([1]; oSGQ, pH 6-7, 650 nm): around 4 °C
cloud-point temperature (Tcp) ([1]; protonated hSGQ, at pHs and 5.5, 650 nm): 29 °C
pKa [2]: 5.7
transition pH ([2]; transmittance at 650 nm, 26° C., at 65% of the transmittance): around 5.7
ΔHTm ([3]; ImAGhD2OH, pH 5.0): 64.32 kcal/mol
ΔSTm ([3]; ImAGhD2OH, pH 5.0): 0.884 kcal/mol · ° C.
ΔSTt ([3]; ImAGhD2OH, pH 5.0): 0.778 kcal/mol · ° C.
Tt ([3]; ImAGhD2OH, pH 5.0, aqueous solution): 59.3 °C and 59.26 °C
ΔGT: [3, 6]: 30.67 kcal/mol
ΔGTm [3, 6]: 46.64 kcal/mol
Tm ([3]; ImAGhD2OH, pH 5.0, melting of SGQ assembly): 72.7 °C and 72.72 °C
ΔHTm ([3]; ImAGhD2OH, pH 5.5): 62.58 kcal/mol
ΔHTt ([3]; ImAGhD2OH, pH 5.5): 146 kcal/mol and 146.0 kcal/mol
ΔSTm ([3]; ImAGhD2OH, pH 5.5): 0.912 kcal/mol · ° C.
ΔSTt ([3]; ImAGhD2OH, pH 5.5): 2.704 kcal/mol · ° C.
Tt ([3]; ImAGhD2OH, pH 5.5, aqueous solution): 54.00 °C
ΔGT: [3, 7]: 91.92 kcal/mol
ΔGTm [3, 7]: 44.34 kcal/mol
Tm ([3]; ImAGhD2OH, pH 5.5, melting of SGQ assembly): 68.64 °C
ΔHTm ([3]; ImAGhD2OH, pH 6:0): 11.20 kcal/mol
ΔHTt ([3]; ImAGhD2OH, pH 6:0): 0.123 kcal/mol
ΔSTm ([3]; ImAGhD2OH, pH 6:0): 0.272 kcal/mol · ° C.
ΔSTt ([3]; ImAGhD2OH, pH 6:0): 0.0216 kcal/mol · ° C.
Tt ([3]; ImAGhD2OH, pH 6:0, aqueous solution): 5.702 °C
ΔGT: [3, 8]: -0.309 kcal/mol
ΔGTm [3, 8]: 5.76 kcal/mol
Tm ([3]; ImAGhD2OH, pH 6:0, melting of SGQ assembly): 41.12 °C
ΔHTm ([3]; ImAGhD2OH, pH 6.5): 11.80 kcal/mol
ΔHTt ([3]; ImAGhD2OH, pH 6.5): 0.0522 kcal/mol
ΔSTm ([3]; ImAGhD2OH, pH 6.5): 0.316 kcal/mol · ° C.
ΔSTt ([3]; ImAGhD2OH, pH 6.5): 0.0106 kcal/mol · ° C.
Tt ([3]; ImAGhD2OH, pH 6.5, aqueous solution): 4.938 °C
ΔGT: [3, 9]: -0.160 kcal/mol
ΔGTm [3, 9]: 5.48 kcal/mol
Tm ([3]; ImAGhD2OH, pH 6.5, melting of SGQ assembly): 37.32 °C
ΔHTm ([3]; ImAGhD2OH, pH 7.0): 15.42 kcal/mol
ΔHTt ([3]; ImAGhD2OH, pH 7.0): 0.078 kcal/mol and 0.0784 kcal/mol
ΔSTm ([3]; ImAGhD2OH, pH 7.0): 0.362 kcal/mol · ° C.
ΔSTt ([3]; ImAGhD2OH, pH 7.0): 0.0144 kcal/mol · ° C.
Tt ([3]; ImAGhD2OH, pH 7.0, aqueous solution): 5.4 °C and 5.449 °C
ΔGT: [3, 10]: -0.210 kcal/mol
ΔGTm [3, 10]: 8.18 kcal/mol
Tm ([3]; ImAGhD2OH, pH 7.0, melting of SGQ assembly): 42.6 °C and 42.64 °C
ΔTt ([3]; between oSGQ (pH 7) and hSGQ (pH 5)): ≈ 53.9 °C

COc1cccc2c1C(=O)c1c(O)c3c(c(O)c1C2=O)C[C@@](O)(C(=O)CO)C[C@@H]3O[C@H]1C[C@H](N)[C@H](O)[C@H](C)O1 [DOX, doxorubicin]
cytotoxicity (MTT) [4]: cytotoxic

Cn1ccnc1/C=C/C(=O)c1ccccc1 [ImAG std, (E)-3-(1-methyl-1H-imidazol-2-yl)-1-phenylprop-2-en-1-one]
pKa [5]: 5.5 to 6

Cn1ccnc1/C=C/C(=O)c1cccc(-c2nc3c(=O)[nH]c(N)nc3n2[C@H]2C[C@H](OC(=O)CCCCn3cc(COC(=O)C(C)(CO)CO)nn3)[C@@H](COC(=O)CCCCn3cc(COC(=O)C(C)(CO)CO)nn3)O2)c1 [ImAGpD2OH]
Tcp ([1]; hSGQ at pH 5): 42 °C
shift of ΔTcp ([1]; hSGQ at pH 5, relative to ImAGhD2OH): 13 °C
Tcp ([1]; oSGQ at pH 7): 15 °C
shift of ΔTcp ([1]; oSGQ at pH 7, relative to ImAGhD2OH): 10 °C
pKa [2]: 5.7
ΔHTm ([3]; ImAGpD2OH, pH 5.0): 57.01 kcal/mol
ΔHTt ([3]; ImAGpD2OH, pH 5.0): 8.41 kcal/mol
ΔSTm ([3]; ImAGpD2OH, pH 5.0): 0.808 kcal/mol · ° C.
ΔSTt ([3]; ImAGpD2OH, pH 5.0): 0.167 kcal/mol · ° C.
Tt ([3]; ImAGpD2OH, pH 5.0, aqueous solution): 50.5 °C and 50.45 °C
ΔGT: [3, 11]: 5.07 kcal/mol
ΔGTm [3, 11]: 40.85 kcal/mol
Tm ([3]; ImAGpD2OH, pH 5.0, melting of SGQ assembly): 70.52 °C
ΔHTm ([3]; ImAGpD2OH, pH 7.0): 101.3 kcal/mol
ΔHTt ([3]; ImAGpD2OH, pH 7.0): 4.36 kcal/mol
ΔSTm ([3]; ImAGpD2OH, pH 7.0): 1.805 kcal/mol · ° C.
ΔSTt ([3]; ImAGpD2OH, pH 7.0): 0.505 kcal/mol · ° C.
Tt ([3]; ImAGpD2OH, pH 7.0, aqueous solution): 8.6 °C and 8.631 °C
ΔGT: [3, 12]: -5.74 kcal/mol
ΔGTm [3, 12]: 65.20 kcal/mol
Tm ([3]; ImAGpD2OH, pH 7.0, melting of SGQ assembly): 56.11 °C

— US10106572B1, “Supramolecular hacky sacks (SHS), method of synthesis and applications thereof” (University of Puerto Rico, priority 2014, dated 2018)
